According to US9617262B2, “Antibacterial cyclopental[C]pyrrole substituted 3,4-dihydro-1H-[1,8]naphthyridinones” (Janssen Sciences Ireland UC, priority 2011, dated 2017):

Legend:
[1] = system: Human HelaM cells; assay: Cytotoxicity MTT assay (TOX HELAM); type: cell-based; details: 72 hours
Method: Cytotoxicity of the compounds was evaluated using the MTT assay. Human HelaM cells grown in 96-well plates were exposed to serial dilutions of the tested compounds (final volume of 0.2 ml) and incubated for 72 hours at 37° C. and 5% CO2. Inhibitors are typically varied over the range of 25 to 0.8 μM. The final DMSO concentration in the assay is 0.5%. MTT (3-(4,5-Dimethylthiazol-2-yl)-2,5-diphenyltetrazolium bromide, a tetrazole) was added and reduced to purple formazan only in living cells. Solubilization of the formazan crystals was achieved by adding 100 μl 2-propanol. Cell viability was determined by measuring the absorbance of the reduced formazan, giving a purple color, at 540 nm and 690 nm. The absorbance measured at 690 nm was automatically subtracted from the absorbance at 540 nm, to eliminate the effects of non-specific absorption. The percent cytotoxicity achieved by the compounds was calculated according to standard methods. Cytotoxicity is reported as CC50, the concentration that causes a 50% reduction in cell viability.
The results are depicted in the table D2 below (TOX HELAM).

[2] = target: S. aureus ATCC 29213 FabI (Staphylococcus aureus (strain MRSA252), UniProt Q6GI75); assay: Staphylococcus aureus FabI enzyme inhibition assay; type: biochemical; details: pH 6.5, 30 minutes at room temperature
Method: FabI enzyme inhibition assays were carried out in half-area, 384-well microtitre plates. Compounds were evaluated in 40-μl assay mixtures containing 100 mM NaADA, pH 6.5 (ADA=N-[2-acetamido]-2iminodiacetic acid), 250 μM crotonoyl-CoA, 625 μM NADH and 50 μg/ml S. aureus ATCC 29213 FabI. Inhibitors were typically varied over the range of 50 to 0.39 μM. The reaction mixtures were incubated for 30 minutes at room temperature and the reaction was stopped by adding 200 mM Tris buffer (pH 9.0) to create a pH-shift. The consumption of NADH was monitored by measuring the change in absorbance at […]. By comparing sample readings to those of negative (absence of compound) and positive (absence of enzyme) controls, the percent inhibition of enzymatic activity of the compounds was determined. A best-fit curve is fitted by a minimum of squares method. From this an IC50-value (expressed in μg/ml), resulting in 50% inhibition of enzymatic activity, was obtained.

[3] = system: Staphylococcus aureus ATCC 29213; assay: Antibacterial susceptibility testing: IC90 determination (STA); type: cell-based; details: STA ATCC 29213, 90% inhibitory concentration for bacterial growth
Method: (§1) The following bacteria were used: Staphylococcus aureus ATCC 29213, methicillin-resistant Staphylococcus aureus (MRSA) ATCC 700788 and Escherichia coli ATCC 35218. The bacteria used in this study were grown overnight in flasks containing 100 ml Mueller-Hinton broth (Difco cat. nr. 0757-17) in sterile de-ionized water, with shaking, at 37° C. Stocks were store at −70° C. until use.
(§2) Bacteria were incubated on a tryptic soy agar plate containing 5% sheep blood (Becton Dickinson cat. nr. 254053) for 18-24 hours at 35° C. in aerobic conditions (first passage). For the second passage, fresh Mueller-Hinton broth is inoculated with 5-10 colonies and grown overnight at 35° C. until turbidity (reaching log-phase) in aerobic conditions is reached. The bacterial suspension is then adjusted to 0.5 McFarland density and further diluted 1:100 in Mueller Hinton broth medium. This is used as inoculum.
(§3) MIC assays were performed by the broth microdilution method in a 96-well format (flat-bottom microtitre plates) with a final volume of 0.1 ml Mueller Hinton broth containing two-fold serial dilutions of compounds and inoculated with 5×10^5 CFU/ml of bacteria (standard inoculum size according to CLSI guidelines). Inhibitors are typically varied over the range of 63 to 0.49 μM. The final DMSO concentration in the assay was 1.25% (maximum tolerable DMSO concentration=6%). In the assays where the effect of human serum on the activity of the compounds against S. aureus was tested, human serum was added at a final concentration of 10%. The plates were incubated at 35° C. for 16-20 hours. At the end of incubation the bacterial growth was quantified fluorometrically. For this, resazurin was added to all wells and the plates were re-incubated. The incubation time is dependent on the type of bacteria. A change in color from blue to pink indicated the growth of bacteria. The fluorescence was read in computer-controlled fluorometer (Fluoroskan Ascent FL, Labsystems) at an excitation wavelength 540 nm and an emission wavelength of 590 nm. The % growth inhibition achieved by the compounds was calculated according to standard methods. The IC90 (expressed in μg/ml) was defined as the 90% inhibitory concentration for bacterial growth. A panel of reference compounds were simultaneously tested for QC approval.

[4] = system: S. aureus; assay: Antibacterial susceptibility testing: IC90 determination with 10% human serum (STA + 10% HS); type: cell-based, Staphylococcus aureus; details: human serum at a final concentration of 10%
Method: as §1, §2, §3
The results are depicted in the table D2 below (STA+10% HS).

Row | Structure (SMILES) | TOX HELAM (222.125) CC50 [1] [µg/mL] | FabI IC50 [2] [µg/mL] | STA (361.159) IC90 [3] [µg/mL] | STA + 10% HS (361.169) IC90 [4] [µg/mL]
1 | O=C1CCc2cc(/C=C/C(=O)N3CC4C=C(c5cccnc5)CC4C3)cnc2N1 (racemic) [compound 26] | >3.8646 | 0.41 | 1.11 | 1.11
2 | O=C1CCc2cc(/C=C/C(=O)N3C[C@H]4CC(c5ccccc5)=C[C@H]4C3)cnc2N1 (single isomer, unassigned) [compound 13] | >9.683 | 0.39 | 0.31 | 0.43
3 | O=C1CCc2cc(/C=C/C(=O)N3C[C@H]4CC(c5ccncc5)=C[C@H]4C3)cnc2N1 (single isomer, unassigned) [compound 40] |  | 0.39 |  | 
4 | O=C1CCc2cc(/C=C/C(=O)N3CC4C=C(c5cccs5)CC4C3)cnc2N1 (stereo not drawn) [compound 3] | >3.256 | 0.29 | 0.03 | 0.06
5 | O=C1CCc2cc(/C=C/C(=O)N3C[C@@H]4CN(c5cccs5)C[C@@H]4C3)cnc2N1 [compound 4] |  | 0.70 |  | 
6 | O=C1CCc2cc(/C=C/C(=O)N3C[C@H]4CN(Cc5cccs5)C[C@H]4C3)cnc2N1 [compound 6] |  | 3.73 |  | 
7 | COc1ccccc1N1C[C@H]2CN(C(=O)/C=C/c3cnc4c(c3)CCC(=O)N4)C[C@H]2C1 [compound 8] | >10.5122 | 0.50 | 1.15 | 1.52
8 | O=C1CCc2cc(/C=C/C(=O)N3CC4C=C(c5ccccc5Cl)CC4C3)cnc2N1 (stereo not drawn) [compound 9] | 4.77 | 0.75 | 0.33 | 0.69
9 | Cc1ccccc1C1=CC2CN(C(=O)/C=C/c3cnc4c(c3)CCC(=O)N4)CC2C1 (stereo not drawn) [compound 11] | 6.19 | 0.48 | 0.37 | 1.76
10 | Cn1nccc1C1=CC2CN(C(=O)/C=C/c3cnc4c(c3)CCC(=O)N4)CC2C1 (stereo not drawn) [compound 15] | >9.783 | 0.48 | 0.74 | 0.72
11 | Cc1ccccc1N1C[C@H]2CN(C(=O)/C=C/c3cnc4c(c3)CCC(=O)N4)C[C@H]2C1 [compound 17] | >10.1103 | 0.38 | 0.37 | 0.38
12 | O=C1CCc2cc(/C=C/C(=O)N3C[C@@H]4CN(c5ccccc5Cl)C[C@@H]4C3)cnc2N1 [compound 18] | >10.6233 | 0.44 | 0.21 | 0.37
13 | O=C1CCc2cc(/C=C/C(=O)N3CC4C=C(c5ccco5)CC4C3)cnc2N1 (stereo not drawn) [compound 19] | >9.43 | ~0.62 | 0.18 | 0.12
14 | O=C1CCc2cc(/C=C/C(=O)N3C[C@@H]4CN(c5cccnc5)C[C@@H]4C3)cnc2N1 [compound 20] |  | 1.07 |  | 
15 | Cn1cc(C2=CC3CN(C(=O)/C=C/c4cnc5c(c4)CCC(=O)N5)CC3C2)cn1 (stereo not drawn) [compound 27] |  | 0.6 |  | 
16 | O=C1CCc2cc(/C=C/C(=O)N3CC4CC(n5cccn5)CC4C3)cnc2N1 (stereo not drawn) [compound 29] |  | 1.04 |  | 
17 | C#CN1C[C@@H]2CN(C(=O)/C=C/c3cnc4c(c3)CCC(=O)N4)C[C@@H]2C1 [compound 30] |  | 2.66 |  | 

Row | Structure (SMILES) | TOX HELAM (222.125) CC50 [1] [µg/mL] | FabI IC50 [2] [µg/mL] | STA (361.159) IC90 [3] [µg/mL] | STA + 10% HS (361.169) IC90 [4] [µg/mL]
18 | COC1CC2CN(C(=O)/C=C/c3cnc4c(c3)CCC(=O)N4)CC2C1 (stereo not drawn) [compound 31] |  | 1.42 |  | 
19 | O=C1CCc2cc(/C=C/C(=O)N3CC4C=C(c5nccs5)CC4C3)cnc2N1 (stereo not drawn) [compound 32] |  | 0.46 |  | 
20 | O=C1CCc2cc(/C=C/C(=O)N3C[C@@H]4CN(S(=O)(=O)c5ccccc5)C[C@@H]4C3)cnc2N1 [compound 33] |  | 3.06 |  | 
21 | O=C1CCc2cc(/C=C/C(=O)N3CC4CC(F)(F)CC4C3)cnc2N1 (stereo not drawn) [compound 34] |  | 1.67 |  | 
22 | O=C1CCc2cc(/C=C/C(=O)N3C[C@@H]4CN(c5ccc(Cl)cc5)C[C@@H]4C3)cnc2N1 [compound 35] |  | 1.25 |  | 
23 | O=C1CCc2cc(/C=C/C(=O)N3C[C@@H]4CN(c5cccc(Cl)c5)C[C@@H]4C3)cnc2N1 [compound 36] |  | 0.93 |  | 
24 | O=C1CCc2cc(/C=C/C(=O)N3CC4CC(n5cncn5)CC4C3)cnc2N1 (stereo not drawn) [compound 37] |  | 3.37 |  | 
25 | O=C1CCc2cc(/C=C/C(=O)N3CC4CC(n5ccnn5)CC4C3)cnc2N1 (stereo not drawn) [compound 38] |  | 2.08 |  | 
26 | O=C1CCc2cc(/C=C/C(=O)N3CC4CC(n5nccn5)CC4C3)cnc2N1 (stereo not drawn) [compound 39] |  | 0.56 |  | 
27 | O=C1CCc2cc(/C=C/C(=O)N3C[C@@H]4CC(c5ccsc5)=C[C@@H]4C3)cnc2N1 [compound 45] |  | 0.45 |  | 
28 | CC1=CC2CN(C(=O)/C=C/c3cnc4c(c3)CCC(=O)N4)CC2C1 (stereo not drawn) [compound 52] |  | 0.50 |  | 
29 | O=C1CCc2cc(/C=C/C(=O)N3C[C@H]4CC(Oc5ccccc5)C[C@H]4C3)cnc2N1 (stereo partly drawn) [compound 54] |  | 1.84 |  | 
30 | Cc1ccc(C2=CC3CN(C(=O)/C=C/c4cnc5c(c4)CCC(=O)N5)CC3C2)o1 (stereo not drawn) [compound 57] |  | 0.62 |  | 
31 | Cc1cscc1C1=CC2CN(C(=O)/C=C/c3cnc4c(c3)CCC(=O)N4)CC2C1 (stereo not drawn) [compound 60] |  | 0.59 |  | 
32 | CC(=O)c1ccc(C2=CC3CN(C(=O)/C=C/c4cnc5c(c4)CCC(=O)N5)CC3C2)s1 (stereo not drawn) [compound 62] |  | 0.44 |  | 
33 | COc1ccsc1C1=CC2CN(C(=O)/C=C/c3cnc4c(c3)CCC(=O)N4)CC2C1 (stereo not drawn) [compound 72] |  | 0.43 |  | 
